Legend:
Format in all cases: biochemical
Conditions in all cases: 20 nM
[1] = molecular target: PDE4D2 (Homo sapiens, UniProt Q08499); experiment: PDE4 inhibitory activity assay (FAM-cAMP enzymatic reaction), PDE4D2
Summary of the method: (§1)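 Human PDE4A1A, PDE4B1 or PDE4D2 preincubated with compound 15 min at room temperature, then FAM-cAMP substrate added; reaction 30 min at room temperature before stop solution and further 60 min. Fluorescence read on multilabel counter; IC50 fitted from inhibition rates.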

[2] = molecular target: T1, PDE4A1A (Homo sapiens, UniProt P27815); experiment: PDE4 inhibitory activity assay (FAM-cAMP enzymatic reaction), PDE4A1A
T1 construct: purchased BPS 60040
Summary of the method: as §1

[3] = molecular target: T2, PDE4B1 (Homo sapiens, UniProt Q07343); experiment: PDE4 inhibitory activity assay (FAM-cAMP enzymatic reaction), PDE4B1
T2 construct: purchased BPS 60041
Summary of the method: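 Each isoform is incubated with test compound for 15 min at room temperature before FAM-cAMP substrate starts a 30-min reaction.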

T1 sequence (P27815 1-647 isoform P27815-4): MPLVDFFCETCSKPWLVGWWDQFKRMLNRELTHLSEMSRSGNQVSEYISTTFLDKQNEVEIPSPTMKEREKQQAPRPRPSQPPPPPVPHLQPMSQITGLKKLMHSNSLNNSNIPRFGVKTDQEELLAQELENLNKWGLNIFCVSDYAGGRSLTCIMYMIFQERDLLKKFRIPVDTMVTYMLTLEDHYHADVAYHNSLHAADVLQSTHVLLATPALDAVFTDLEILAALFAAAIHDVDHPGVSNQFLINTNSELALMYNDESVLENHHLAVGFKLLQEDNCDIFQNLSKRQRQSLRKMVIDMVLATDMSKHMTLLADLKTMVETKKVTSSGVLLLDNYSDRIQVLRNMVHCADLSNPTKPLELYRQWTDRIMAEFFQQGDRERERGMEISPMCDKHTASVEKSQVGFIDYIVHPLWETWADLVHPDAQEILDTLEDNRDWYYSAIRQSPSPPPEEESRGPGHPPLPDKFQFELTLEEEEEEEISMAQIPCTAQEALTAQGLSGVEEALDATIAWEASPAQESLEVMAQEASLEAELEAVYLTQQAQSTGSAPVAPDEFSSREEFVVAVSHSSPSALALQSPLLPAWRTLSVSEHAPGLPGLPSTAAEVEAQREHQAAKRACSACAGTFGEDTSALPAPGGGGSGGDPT
Chain of PDE4D2 (Q08499 303-809): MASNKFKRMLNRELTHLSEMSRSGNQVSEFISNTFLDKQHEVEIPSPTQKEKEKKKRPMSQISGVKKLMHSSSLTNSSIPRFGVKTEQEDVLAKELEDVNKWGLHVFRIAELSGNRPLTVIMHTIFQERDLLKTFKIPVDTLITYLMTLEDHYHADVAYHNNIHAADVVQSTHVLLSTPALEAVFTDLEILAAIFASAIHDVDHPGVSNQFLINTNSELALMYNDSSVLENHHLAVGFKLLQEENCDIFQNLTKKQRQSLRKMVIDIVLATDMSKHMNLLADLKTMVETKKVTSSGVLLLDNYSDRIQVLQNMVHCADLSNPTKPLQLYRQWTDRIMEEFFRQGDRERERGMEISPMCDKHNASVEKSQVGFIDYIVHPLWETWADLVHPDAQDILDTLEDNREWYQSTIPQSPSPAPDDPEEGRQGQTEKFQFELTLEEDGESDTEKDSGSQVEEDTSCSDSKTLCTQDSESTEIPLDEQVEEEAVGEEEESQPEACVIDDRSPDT
T2 sequence (Q07343 whole entry): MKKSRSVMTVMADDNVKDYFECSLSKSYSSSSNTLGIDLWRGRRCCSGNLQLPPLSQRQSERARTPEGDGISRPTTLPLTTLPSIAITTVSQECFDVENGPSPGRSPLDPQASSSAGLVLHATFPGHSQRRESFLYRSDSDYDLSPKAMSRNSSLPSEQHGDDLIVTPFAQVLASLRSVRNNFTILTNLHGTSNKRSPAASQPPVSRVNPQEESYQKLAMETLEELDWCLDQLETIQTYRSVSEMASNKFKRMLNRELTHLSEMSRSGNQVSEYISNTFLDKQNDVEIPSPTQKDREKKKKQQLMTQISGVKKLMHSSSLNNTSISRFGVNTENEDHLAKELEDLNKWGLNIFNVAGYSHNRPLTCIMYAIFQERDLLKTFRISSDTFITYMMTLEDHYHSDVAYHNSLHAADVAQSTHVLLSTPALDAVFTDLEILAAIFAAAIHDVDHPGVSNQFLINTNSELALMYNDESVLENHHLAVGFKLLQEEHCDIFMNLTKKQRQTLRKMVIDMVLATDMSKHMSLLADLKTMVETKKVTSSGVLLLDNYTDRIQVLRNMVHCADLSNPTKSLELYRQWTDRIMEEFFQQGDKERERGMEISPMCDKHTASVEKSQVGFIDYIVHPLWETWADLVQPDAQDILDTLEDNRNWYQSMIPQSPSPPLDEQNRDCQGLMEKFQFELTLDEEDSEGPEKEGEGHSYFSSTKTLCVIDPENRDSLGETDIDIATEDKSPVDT

| PDE4 D2 inhibitory effect at 20 nM [1] | PDE4 A1 inhibitory effect at 20 nM [2] | PDE4 B1 inhibitory effect at 20 nM [3] | SMILES |
| --- | --- | --- | --- |
| + | + | + | CCOc1nc([C@@H](CS(C)(=O)=O)n2c(=O)[nH]c3cc(-c4ccc(C)cc4F)ccc32)ccc1OC [Ex. 179, (S)-5-(2-fluoro-4-methylphenyl)-1-(1-(6-ethoxy-5-methoxypyridin-2-yl)-2-(methylsulfonyl)ethyl)-1H-benzo[d]imidazol-2(3H)-one] |
| + | + | + | CCOc1nc([C@@H](CS(C)(=O)=O)n2c(=O)[nH]c3cc(-c4cccc(C)c4C)cnc32)ccc1OC [Ex. 103, (S)-6-(2,3-dimethylphenyl)-3-(1-(6-ethoxy-5-methoxypyridin-2-yl)-2-(methylsulfonyl)ethyl)-1H-imidazo[4,5-b]pyridin-2(3H)-one] |
| − | − | − | CCOc1nc([C@H](CS(C)(=O)=O)N2Cc3cccc(NC(=O)CC)c3C2=O)ccc1OC [Ex. 220, (R)—N-(2-(1-(6-ethoxy-5-methoxypyridin-2-yl)-2-(methylsulfonyl)ethyl)-3-oxoisoindolin-4-yl)propionamide] |
| + | + | + | CCOc1nc([C@@H](CS(C)(=O)=O)n2c(=O)[nH]c3cc(-c4ccccc4CC)cnc32)ccc1OC [Ex. 81, (S)-3-(1-(6-ethoxy-5-methoxypyridin-2-yl)-2-(methylsulfonyl)ethyl)-6-(2-ethylphenyl)-1H-imidazo[4,5-b]pyridin-2(3H)-one] |
| + | + | + | CCOc1nc([C@@H](CS(C)(=O)=O)N2C(=O)c3csc(NC(=O)C4CC4)c3C2=O)ccc1OC [Ex. 227, (S)—N-(5-(1-(6-ethoxy-5-methoxypyridin-2-yl)-2-(methylsulfonyl)ethyl)-4,6-dioxo-5,6-dihydro-4H-thieno[3,4-c]pyrrol-1-yl)cyclopropanecarboxamide] |
| + | + | + | CCOc1nc([C@@H](CS(C)(=O)=O)n2c(=O)[nH]c3cc(-c4ccccc4Cl)ccc32)ccc1OC [Ex. 142, (S)-5-(2-chlorophenyl)-1-(1-(6-ethoxy-5-methoxypyridin-2-yl)-2-(methylsulfonyl)ethyl)-1H-benzo[d]imidazol-2(3H)-one] |
| = | + | + | CCOc1nc([C@@H](CS(C)(=O)=O)n2c(=O)[nH]c3c(C)c(-c4ccccc4C(F)(F)F)cnc32)ccc1OC [Ex. 14, (S)-3-(1-(6-ethoxy-5-methoxypyridin-2-yl)-2-(methylsulfonyl)ethyl)-7-methyl-6-(2-(trifluoromethyl)phenyl)-1H-imidazo[4,5-b]pyridin-2(3H)-one] |
| + | + | + | CCOc1nc([C@H](CS(C)(=O)=O)n2c(=O)[nH]c3cc(-c4ccccc4C)ccc32)ccc1OC [Ex. 141, (R)-1-(1-(6-ethoxy-5-methoxypyridin-2-yl)-2-(methylsulfonyl)ethyl)-5-(o-methylphenyl)-1H-benzo[d]imidazol-2(3H)-one] |
| + | + | + | CCOc1nc([C@@H](CS(C)(=O)=O)n2c(=O)[nH]c3cc(-c4c(F)cccc4F)ccc32)ccc1OC [Ex. 154, (S)-5-(2,6-difluorophenyl)-1-(1-(6-ethoxy-5-methoxypyridin-2-yl)-2-(methylsulfonyl)ethyl)-1H-benzo[d]imidazol-2(3H)-one] |
| + | + | + | CCOc1nc([C@@H](CS(C)(=O)=O)n2c(=O)[nH]c3cc(C(=O)OCC(F)(F)F)ccc32)ccc1OC [Ex. 214, (S)-2,2,2-trifluoroethyl 1-(1-(6-ethoxy-5-methoxypyridin-2-yl)-2-(methylsulfonyl)ethyl)-2-oxo-2,3-dihydro-1H-benzo[d]imidazole-5-carboxylate] |
| + | + | + | CCOc1nc([C@@H](CS(C)(=O)=O)n2c(=O)[nH]c3cc(-c4ccc(F)cc4OC)ccc32)ccc1OC [Ex. 188, (S)-5-(4-fluoro-2-methoxyphenyl)-1-(1-(6-ethoxy-5-methoxypyridin-2-yl)-2-(methylsulfonyl)ethyl)-1H-benzo[d]imidazol-2(3H)-one] |
| + | + | + | CCOc1nc([C@@H](CS(C)(=O)=O)n2c(=O)[nH]c3cc(-c4ccc(F)cc4)cnc32)ccc1OC [Ex. 78, (S)-3-(1-(6-ethoxy-5-methoxypyridin-2-yl)-2-(methylsulfonyl)ethyl)-6-(4-fluorophenyl)-1H-imidazo[4,5-b]pyridin-2(3H)-one] |
| − | − | − | CCOc1nc([C@@H](CS(C)(=O)=O)n2c(=O)n(CCS(C)(=O)=O)c3cc(Br)ccc32)ccc1OC [Ex. 210, (S)-5-bromo-1-(1-(6-ethoxy-5-methoxypyridin-2-yl)-2-(methylsulfonyl)ethyl)-3-(2-(methylsulfonyl)ethyl)-1H-benzo[d]imidazol-2(3H)-one] |
| + | + | + | CCOc1nc([C@@H](CS(C)(=O)=O)n2c(=O)[nH]c3c(C)c(-c4ccccc4C)cnc32)ccc1OC(F)F [Ex. 64, (S)-3-(1-(5-(difluoromethoxy)-6-ethoxypyridin-2-yl)-2-(methylsulfonyl)ethyl)-7-methyl-6-(o-methylphenyl)-1H-imidazo[4,5-b]pyridin-2(3H)-one] |
| + | + | + | CCOc1nc([C@@H](CS(C)(=O)=O)n2c(=O)n(CC(F)(F)F)c3c(C)c(-c4ccccc4)cnc32)ccc1OC [Ex. 53, (S)-3-(1-(6-ethoxy-5-methoxypyridin-2-yl)-2-(methylsulfonyl)ethyl)-7-methyl-6-phenyl-1-(2,2,2-trifluoroethyl)-1H-imidazo[4,5-b]pyridin-2(3H)-one] |
| + | + | + | CCOc1nc([C@@H](CS(C)(=O)=O)n2c(=O)[nH]c3cc(-c4ccccc4F)cnc32)ccc1OC [Ex. 74, (S)-3-(1-(6-ethoxy-5-methoxypyridin-2-yl)-2-(methylsulfonyl)ethyl)-6-(2-fluorophenyl)-1H-imidazo[4,5-b]pyridin-2(3H)-one] |
| + | + | + | CCOc1nc([C@@H](CS(C)(=O)=O)n2c(=O)n(C)c3cc(-c4ccccc4C(F)(F)F)cnc32)ccc1OC [Ex. 86, (S)-3-(1-(6-ethoxy-5-methoxypyridin-2-yl)-2-(methylsulfonyl)ethyl)-6-(2-(trifluoromethyl)phenyl)-1-methyl-1H-imidazo[4,5-b]pyridin-2(3H)-one] |

Source: US20230141101A1, “PDE4 INHIBITOR COMPOUND AND MEDICAL USE THEREOF” (Suzhou Longbotai Pharmaceuticals Co., Ltd., priority 2020, published 2023)
